Source: patent US10399940B2, “Substituted pyrrolidines and methods of use” (AbbVie S.à.r.l., priority 2016, dated 2019)
pEC50: −log10 of the molar value. Where two headings read alike, the source gives them in different places.

Biological target: T1, F508delCFTR (Homo sapiens, UniProt P13569, DEL508-508)
T1 construct: expressed in transfected cells; host or cells: CFBE41o- (human lung derived epithelial cell line), doxycycline-inducible expression
Assay: Cell Surface Expression-Horse Radish Peroxidase (CSE-HRP) assay
Type: cell-based
Conditions: CFBE41o-F508delCFTR-HRP cells; for Maximum % activity (with co-corrector): with co-corrector (2 μM); for Maximum % activity (with co-corrector) / Maximum % activity (without co-corrector): normalized to on-plate positive control, highest concentration 20 μM
Method: Cell Surface Expression-Horse Radish Peroxidase (CSE-HRP) Assay
A cellular assay for measuring the F508delCFTR cell surface expression after correction with test compounds either without or with a co-corrector (2 μM of 3-[(2R,4R)-4-({[1-(2,2-difluoro-1,3-benzodioxol-5-yl)cyclopropyl]carbonyl}amino)-7-methoxy-3,4-dihydro-2H-chromen-2-yl]benzoic acid), was developed in human lung derived epithelial cell line (CFBE41o-) (Veit G et al, (2012) Mol Biol Cell. 23(21): 4188-4202). The development was achieved by expressing the F508delCFTR mutation along with a horseradish peroxidase (HRP) in the fourth exofacial loop, and then measuring the HRP activity using luminescence readout from these cells, CFBE41o-F508delCFTR-HRP, that were incubated overnight with the test corrector compounds, either without or with the co-corrector. For this primary assay, the CFBE41o-F508delCFTR-HRP cells were plated in 384-well plates (Greiner Bio-one; Cat 781080) at 4,000 cells/well along with 0.5 μg/mL doxycycline to induce the F508delCFTR-HRP expression and further incubated at 37° C., 5% CO2 for 72 hours. The test compounds were then added either without or with a co-corrector at the required concentrations and further incubated for 18-24 hours at 33° C. The highest concentration tested was 20 μM with an 8-point concentration response curve using a 3-fold dilution in both the test compound without or with the co-corrector. Three replicate plates were run to determine one EC50. All plates contained negative controls (dimethyl sulfoxide, DMSO) and positive control (2 μM of 3-[(2R,4R)-4-({[1-(2,2-difluoro-1,3-benzodioxol-5-yl)cyclopropyl]carbonyl}amino)-7-methoxy-3,4-dihydro-2H-chromen-2-yl]benzoic acid) as well as on-plate concentration response of the positive control. Post incubation, the plates were washed 5× times with Dulbecco's phosphate buffered saline (DPBS), followed by the addition of the HRP substrate, luminol (50 μL), and measuring the HRP activity using luminescence readout on EnVision® Multilabel Plate Reader (Perkin Elmer; product number 2104-0010). The raw counts from the experiment were analyzed using Accelrys® Assay Explorer v3.3.
Z′ greater than 0.5 was used as passing quality control criteria for the plates.
The Z′ is defined as: 1−[3*SDPositive Control+3*SDNegative Control/Absolute(MeanPositive Control−MeanNegative Control)] wherein “SD” is standard deviation.
The % activity measured at each of the 8 test concentrations of the test compound added either without or with a co-corrector (2 μM of 3-[(2R,4R)-4-({[1-(2,2-difluoro-1,3-benzodioxol-5-yl)cyclopropyl]carbonyl}amino)-7-methoxy-3,4-dihydro-2H-chromen-2-yl]benzoic acid) was normalized to the on-plate positive control using the following formulae: % activity(Test compound without co-corrector)=[(test compound without co-corrector response−DMSO response)/(positive control response−DMSO response)]*100 % activity(Test compound with co-corrector)=[(test compound with co-corrector response−DMSO response)/(positive control response−DMSO response)]*100
The maximum % activity achieved for the test compound either without or with a co-corrector at any tested concentration is presented in Table 1 along with the respective EC50's calculated using the following general sigmoidal curve with variable Hill slope equation (described as Model 42 in the Accelrys® Assay Explorer v3.3 software): y=(a−d)/(1+(x/c)^b)+d
General sigmoidal curve with concentration, response, top, bottom, EC50 and Hill slope. This model describes a sigmoidal curve with an adjustable baseline, a. The equation can be used to fit curves where response is either increasing or decreasing with respect to the independent variable, “x”. • “x” is a concentration of drug under test. • “y” is the response. • “a” is the maximum response, and “d” is the minimum response • “c” is the inflection point (EC50) for the curve. That is, “y” is halfway between the lower and upper asymptotes when x=c. “b” is the slope-factor or Hill coefficient. […]

[1] = test compound without co-corrector, 18-24 hours at 33° C., read-out: EC50 (without co-corrector)
[2] = with co-corrector (2 μM of 3-[(2R,4R)-4-({[1-(2,2-difluoro-1,3-benzodioxol-5-yl)cyclopropyl]carbonyl}amino)-7-methoxy-3,4-dihydro-2H-chromen-2-yl]benzoic acid), read-out: EC50 (with co-corrector)

T1 sequence (P13569 with tags, fused parts or gaps DEL508-508): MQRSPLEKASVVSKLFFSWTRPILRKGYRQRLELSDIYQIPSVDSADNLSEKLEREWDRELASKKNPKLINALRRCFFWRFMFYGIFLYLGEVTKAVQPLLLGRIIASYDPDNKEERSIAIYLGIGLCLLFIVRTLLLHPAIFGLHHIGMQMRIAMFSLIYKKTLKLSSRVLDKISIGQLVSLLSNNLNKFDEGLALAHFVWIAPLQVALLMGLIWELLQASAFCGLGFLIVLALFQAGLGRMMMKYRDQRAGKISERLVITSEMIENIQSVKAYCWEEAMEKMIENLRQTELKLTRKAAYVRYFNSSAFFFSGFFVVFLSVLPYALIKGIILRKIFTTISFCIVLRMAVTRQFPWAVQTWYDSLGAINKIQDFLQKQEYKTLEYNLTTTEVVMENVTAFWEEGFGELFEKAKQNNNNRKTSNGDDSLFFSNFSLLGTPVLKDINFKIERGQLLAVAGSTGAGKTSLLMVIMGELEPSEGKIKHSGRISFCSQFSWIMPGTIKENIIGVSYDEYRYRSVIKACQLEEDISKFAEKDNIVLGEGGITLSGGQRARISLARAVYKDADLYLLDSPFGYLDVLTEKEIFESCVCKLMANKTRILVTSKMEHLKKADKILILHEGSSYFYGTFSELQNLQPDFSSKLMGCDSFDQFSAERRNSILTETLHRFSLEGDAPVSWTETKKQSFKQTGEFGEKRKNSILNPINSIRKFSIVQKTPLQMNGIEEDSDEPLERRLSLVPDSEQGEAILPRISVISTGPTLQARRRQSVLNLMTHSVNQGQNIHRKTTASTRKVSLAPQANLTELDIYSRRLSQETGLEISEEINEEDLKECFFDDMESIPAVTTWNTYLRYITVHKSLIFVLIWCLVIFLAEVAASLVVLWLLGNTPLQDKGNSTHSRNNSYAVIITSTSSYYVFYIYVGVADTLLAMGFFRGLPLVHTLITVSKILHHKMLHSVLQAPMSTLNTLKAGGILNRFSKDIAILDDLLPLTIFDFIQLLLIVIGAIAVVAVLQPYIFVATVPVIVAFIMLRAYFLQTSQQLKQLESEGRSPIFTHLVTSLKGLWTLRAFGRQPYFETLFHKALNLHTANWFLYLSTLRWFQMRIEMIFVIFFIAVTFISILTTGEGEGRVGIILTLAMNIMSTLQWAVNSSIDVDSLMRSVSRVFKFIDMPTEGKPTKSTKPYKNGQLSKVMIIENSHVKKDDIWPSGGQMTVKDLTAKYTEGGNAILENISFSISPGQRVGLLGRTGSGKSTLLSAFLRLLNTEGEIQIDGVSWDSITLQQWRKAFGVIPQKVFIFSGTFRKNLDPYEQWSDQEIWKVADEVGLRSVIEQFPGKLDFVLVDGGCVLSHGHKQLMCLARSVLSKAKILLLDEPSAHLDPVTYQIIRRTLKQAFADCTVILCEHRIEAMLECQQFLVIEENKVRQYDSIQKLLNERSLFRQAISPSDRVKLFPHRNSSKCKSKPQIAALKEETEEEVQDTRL

Row | SMILES | pEC50 [1] | pEC50 [2] | Maximum % activity (with co-corrector) | Maximum % activity (without co-corrector)
1 | COc1ccc(C(F)(F)F)cc1CO[C@@H]1[C@@H](C(C)(C)C)[C@H](C(=O)O)N(C(=O)[C@@H]2CCC[C@@H](OC)C2)[C@@H]1c1ccccc1 (mixture of isomers) [Example 29, rac-(2R,3S,4R,5R)-3-(tert-butyl)-4-((2-methoxy-5-(trifluoromethyl)benzyl)oxy)-1-((1R,3R)-3-methoxycyclohexanecarbonyl)-5-phenylpyrrolidine-2-carboxylic acid] | 5.00 to 6.00 | 5.00 to 6.00 | +++ (≥350) | +++ (≥200)
2 | CC(C)(C)[C@@H]1C(OCc2cc(Cl)ccc2Cl)[C@@H](c2ccccc2)N(C(=O)CC2CCCC2)[C@H]1C(=O)O (mixture of isomers) [Example 1, rac-(2R,3S,5R)-3-tert-butyl-1-(cyclopentylacetyl)-4-[(2,5-dichlorophenyl)methoxy]-5-phenylpyrrolidine-2-carboxylic acid] | 5.00 to 6.00 | 5.00 to 6.00 | +++ (≥350) | + (<100)
3 | COc1ccc(C(F)(F)F)cc1COC1[C@@H](c2ccccc2)N(C(=O)C2CCCCC2)[C@@H](C(=O)O)[C@@H]1C(C)(C)C (mixture of isomers) [Example 2, rac-(2R,3S,5R)-3-tert-butyl-1-(cyclohexanecarbonyl)-4-{[2-methoxy-5-(trifluoromethyl)phenyl]methoxy}-5-phenylpyrrolidine-2-carboxylic acid] | 5.00 to 6.00 | 5.00 to 6.00 | +++ (≥350) | ++ (≥100 and <200)
4 | COc1ccc(Cl)cc1COC1[C@@H](c2ccccc2)N(C(=O)C2CCCCC2)[C@@H](C(=O)O)[C@@H]1C(C)(C)C (mixture of isomers) [Example 3, rac-(2R,3S,5R)-3-tert-butyl-4-[(5-chloro-2-methoxyphenyl)methoxy]-1-(cyclohexanecarbonyl)-5-phenylpyrrolidine-2-carboxylic acid] | 5.00 to 6.00 | 5.00 to 6.00 | +++ (≥350) | ++ (≥100 and <200)
5 | CC(C)(C)[C@@H]1C(OCc2cc(Cl)ccc2Cl)[C@@H](c2ccccc2)N(C(=O)C2CCCCC2)[C@H]1C(=O)O (mixture of isomers) [Example 4, rac-(2R,3S,5R)-3-tert-butyl-1-(cyclohexanecarbonyl)-4-[(2,5-dichlorophenyl)methoxy]-5-phenylpyrrolidine-2-carboxylic acid] | 5.00 to 6.00 | 5.00 to 6.00 | +++ (≥350) | ++ (≥100 and <200)
6 | Cc1cc(C(F)(F)F)cc(OC2[C@@H](c3ccccc3)N(C(=O)C3CCCCC3)[C@@H](C(=O)O)[C@@H]2C(C)(C)C)n1 (mixture of isomers) [Example 5, rac-(2R,3S,5R)-3-tert-butyl-1-(cyclohexanecarbonyl)-4-{[6-methyl-4-(trifluoromethyl)pyridin-2-yl]oxy}-5-phenylpyrrolidine-2-carboxylic acid] | 5.00 to 6.00 | 5.00 to 6.00 | +++ (≥350) | ++ (≥100 and <200)
7 | COc1cc(OC)nc(OC2[C@@H](c3ccccc3)N(C(=O)N(C(C)C)C(C)C)[C@@H](C(=O)O)[C@@H]2C(C)(C)C)n1 (mixture of isomers) [Example 6, rac-(2R,3S,5R)-3-tert-butyl-4-[(4,6-dimethoxypyrimidin-2-yl)oxy]-1-[di(propan-2-yl)carbamoyl]-5-phenylpyrrolidine-2-carboxylic acid] | 5.00 to 6.00 | 5.00 to 6.00 | +++ (≥350) | + (<100)
8 | COc1ccc(C(F)(F)F)cc1COC1[C@@H](c2ccccc2)N(C(=O)N(C(C)C)C(C)C)[C@@H](C(=O)O)[C@@H]1C(C)(C)C (mixture of isomers) [Example 7, rac-(2R,3S,5R)-3-tert-butyl-1-[di(propan-2-yl)carbamoyl]-4-{[2-methoxy-5-(trifluoromethyl)phenyl]methoxy}-5-phenylpyrrolidine-2-carboxylic acid] | < 5.00 | < 5.00 | + (<150) | + (<100)
9 | COc1ncnc(OC)c1CO[C@@H]1[C@@H](C(C)(C)C)[C@H](C(=O)O)N(C(=O)C2CCCCC2)[C@@H]1c1ccccc1 (racemic) [Example 10, rac-(2R,3S,4R,5R)-3-tert-butyl-1-(cyclohexanecarbonyl)-4-[(4,6-dimethoxypyrimidin-5-yl)methoxy]-5-phenylpyrrolidine-2-carboxylic acid] | 5.00 to 6.00 | 5.00 to 6.00 | +++ (≥350) | +++ (≥200)
10 | COc1cc(OC)nc(CO[C@@H]2[C@@H](C(C)(C)C)[C@H](C(=O)O)N(C(=O)C3CCCCC3)[C@@H]2c2ccccc2)n1 (racemic) [Example 11, rac-(2R,3S,4R,5R)-3-tert-butyl-1-(cyclohexanecarbonyl)-4-[(4,6-dimethoxypyrimidin-2-yl)methoxy]-5-phenylpyrrolidine-2-carboxylic acid] | 5.00 to 6.00 | 5.00 to 6.00 | +++ (≥350) | ++ (≥100 and <200)
11 | CN(C)c1ncc(C(F)(F)F)cc1CO[C@@H]1[C@@H](C(C)(C)C)[C@H](C(=O)O)N(C(=O)C2CCCCC2)[C@@H]1c1ccccc1 (racemic) [Example 12, rac-(2R,3S,4R,5R)-3-tert-butyl-1-(cyclohexanecarbonyl)-4-{[2-(dimethylamino)-5-(trifluoromethyl)pyridin-3-yl]methoxy}-5-phenylpyrrolidine-2-carboxylic acid] | 5.00 to 6.00 | 5.00 to 6.00 | +++ (≥350) | ++ (≥100 and <200)
12 | COc1ccc(C(F)(F)F)cc1COC1[C@@H](c2ccccc2OC)N(C(=O)C2CCCCC2)[C@@H](C(=O)O)[C@@H]1C(C)(C)C (mixture of isomers) [Example 13, rac-(2R,3S,5R)-3-tert-butyl-1-(cyclohexanecarbonyl)-5-(2-methoxyphenyl)-4-{[2-methoxy-5-(trifluoromethyl)phenyl]methoxy}pyrrolidine-2-carboxylic acid] | 5.00 to 6.00 | 5.00 to 6.00 | +++ (≥350) | + (<100)
13 | COc1cc(Cl)ccc1COC1[C@@H](c2ccccc2OC)N(C(=O)C2CCCCC2)[C@@H](C(=O)O)[C@@H]1C(C)(C)C (mixture of isomers) [Example 14, rac-(2R,3S,5R)-3-tert-butyl-4-[(4-chloro-2-methoxyphenyl)methoxy]-1-(cyclohexanecarbonyl)-5-(2-methoxyphenyl)pyrrolidine-2-carboxylic acid] | 5.00 to 6.00 | 5.00 to 6.00 | +++ (≥350) | ++ (≥100 and <200)
